Measured values taken from patent US12104178B2, “DHFR tunable protein regulation” (Obsidian Therapeutics, Inc., priority 2017, dated 2024).

Legend:
human donor T cells [1] = assay: Shield-1 concentration and time dependent IL12 p40 in human T cells (Tables 94-96); format: cell-based; design: IL12 levels in T cells (IL12 p40, MSD): unit not given beside the values; details: for EC50: IL12 p40 from OT-IL12-026 T cells; for IL12 levels in T cells (IL12 p40, MSD): OT-IL12-026 T cells, 24 hours
Method: On day 1, cells were transduced with lentivirus for construct OT-IL12-026 at MOIs of 40, 13.3 or 4.4. […] Cells were then plated at 100,000 per well on U-bottom 96-well plate. On day 14, cells were treated for 24 hours with varying concentrations of Shield-1 or vehicle control. On day 15, the supernatant was harvested and IL12 p40 levels were measured by MSD assay. In the Table 94, MOI stands for multiplicity of infection.
A time course experiment was also performed using Shield-1 at a dose of 1 μM. T cells transduced with OT-IL12-020, OT-IL12-026 or empty vector were treated with Shield-1 or vehicle control for 4, 8, 16 and 24 hours. IL12 p40 levels were measured using MSD assay. The stabilization ratio was measured as the ratio of expression of IL12 in the presence of the stimulus to the expression in the absence of the stimulus.

HCT-116 = assay: DD regulated IL2, IL2 ELISA with Shield-1 dose; format: cell-based, human; details: read-out: EC50 of Shield-1, IL2 ELISA (FIG. 58); HCT-116 transduced with OT-IL2-001
Description: OT-IL2-001 (FKBP) was transduced into human colorectal carcinoma line, HCT-116.

human donor T cells [2] = assay: Shield-1 concentration and time dependent IL12 p40 in human T cells (Tables 94-96); format: cell-based; details: 24 h

## CC[C@H](C(=O)N1CCCC[C@H]1C(=O)O[C@H](CCc1ccc(OC)c(OC)c1)c1cccc(OCCN2CCOCC2)c1)c1cc(OC)c(OC)c(OC)c1 [Shield-1]
Human donor T cells [1]; MOI 4.4
  EC50: 84 nM
Human donor T cells [1]; MOI 13.3
  EC50: 94 nM
Human donor T cells [1]; MOI 40
  EC50: 130 nM
Human donor T cells [1]; MOI = 4.4, Shield-1 0.1 nM
  IL12 levels in T cells (IL12 p40, MSD): 49.44
Human donor T cells [1]; MOI = 4.4, Shield-1 1 nM
  IL12 levels in T cells (IL12 p40, MSD): 50.44
Human donor T cells [1]; MOI = 4.4, Shield-1 5 nM
  IL12 levels in T cells (IL12 p40, MSD): 50.44
Human donor T cells [1]; MOI = 4.4, Shield-1 10 nM
  IL12 levels in T cells (IL12 p40, MSD): 178.18
Human donor T cells [1]; MOI = 4.4, Shield-1 50 nM
  IL12 levels in T cells (IL12 p40, MSD): 357.11
Human donor T cells [1]; MOI = 4.4, Shield-1 100 nM
  IL12 levels in T cells (IL12 p40, MSD): 710.56
Human donor T cells [1]; MOI = 4.4, Shield-1 500 nM
  IL12 levels in T cells (IL12 p40, MSD): 1284.95
Human donor T cells [1]; MOI = 4.4, Shield-1 1000 nM
  IL12 levels in T cells (IL12 p40, MSD): 1152.28
Human donor T cells [1]; MOI = 4.4, Shield-1 2000 nM
  IL12 levels in T cells (IL12 p40, MSD): 1071.54
Human donor T cells [1]; MOI = 13.3, Shield-1 0.1 nM
  IL12 levels in T cells (IL12 p40, MSD): 48.10
Human donor T cells [1]; MOI = 13.3, Shield-1 1 nM
  IL12 levels in T cells (IL12 p40, MSD): 48.61
Human donor T cells [1]; MOI = 13.3, Shield-1 5 nM
  IL12 levels in T cells (IL12 p40, MSD): 49.54
Human donor T cells [1]; MOI = 13.3, Shield-1 10 nM
  IL12 levels in T cells (IL12 p40, MSD): 220.08
Human donor T cells [1]; MOI = 13.3, Shield-1 50 nM
  IL12 levels in T cells (IL12 p40, MSD): 420.72
Human donor T cells [1]; MOI = 13.3, Shield-1 100 nM
  IL12 levels in T cells (IL12 p40, MSD): 972.56
Human donor T cells [1]; MOI = 13.3, Shield-1 500 nM
  IL12 levels in T cells (IL12 p40, MSD): 1307.70
Human donor T cells [1]; MOI = 13.3, Shield-1 1000 nM
  IL12 levels in T cells (IL12 p40, MSD): 1559.43
Human donor T cells [1]; MOI = 13.3, Shield-1 2000 nM
  IL12 levels in T cells (IL12 p40, MSD): 1577.99
Human donor T cells [1]; MOI = 40, Shield-1 0.1 nM
  IL12 levels in T cells (IL12 p40, MSD): 88.30
Human donor T cells [1]; MOI = 40, Shield-1 1 nM
  IL12 levels in T cells (IL12 p40, MSD): 80.07
Human donor T cells [1]; MOI = 40, Shield-1 5 nM
  IL12 levels in T cells (IL12 p40, MSD): 88.83
Human donor T cells [1]; MOI = 40, Shield-1 10 nM
  IL12 levels in T cells (IL12 p40, MSD): 374.90
Human donor T cells [1]; MOI = 40, Shield-1 50 nM
  IL12 levels in T cells (IL12 p40, MSD): 608.85
Human donor T cells [1]; MOI = 40, Shield-1 100 nM
  IL12 levels in T cells (IL12 p40, MSD): 1293.01
Human donor T cells [1]; MOI = 40, Shield-1 500 nM
  IL12 levels in T cells (IL12 p40, MSD): 1861.36
Human donor T cells [1]; MOI = 40, Shield-1 1000 nM
  IL12 levels in T cells (IL12 p40, MSD): 2346.15
Human donor T cells [1]; MOI = 40, Shield-1 2000 nM
  IL12 levels in T cells (IL12 p40, MSD): 2330.88
HCT-116
  EC50: 50 nM
Human donor T cells [2]
  Shield-1 concentration at which viability was reduced: greater than 5 μM
